From patent publication US9174946B2, “Selective FAK inhibitors” (priority 2011, dated 2015)
Read-outs that look alike come from different tables or passages of the source.

How the values were obtained:
Y397-FAK phosphorylation = molecular target: T1, Y397-FAK phosphorylation (Homo sapiens, UniProt Q05397); type: cell-based
T1 construct: endogenous in cells; host or cells: MDA-231-LNA cells
Experimental: The ability of compounds of the invention to inhibit FAK within cells can be assessed with an ELISA-type assay performed using a Meso Scale Discovery SECTOR Imager 6000 instrument. In this assay the ability of compounds of the invention to inhibit phosphorylation of Y397-FAK is determined.
P397Y-FAK Inhibition MSD Platform Cellular Biomarker Assay
96-well plates (cat #MA6000, Meso Scale Discovery) are coated with 30 μL/well of mouse monoclonal FAK antibody [63D5] (cat #ab72140, Abcam) pre-diluted in PBS to a concentration of 1 mg/L. The plates are sealed with adhesive film and incubated for 16 hours at 4° C. The antibody is then flicked out of the plates and 150 μL of 3% [w/v] Blocker A (cat #R93AA-1, Mesa Scale Discovery) is added. The plates are resealed with adhesive film and incubated at room temperature on a shaker set at medium speed for 2 hours. The plates are then washed three times with a solution containing 50 mM Tris-HCl pH 7.5, 0.15M NaCl and 0.02% Tween-20, before cell lysate addition described below.
Cells are split 1:2 into T150 cell culture flasks 2 days prior to compound treatment. […] The media/compounds are then flicked off and 55 μL/well of ice-cold complete lysis buffer is added. […] Plates are incubated on ice for 30 minutes, with 30 seconds high speed plate shaking every 5 minutes. 40 μL/well of cell lysate is transferred to the coated, blocked and washed 96-well microtitre plates described above. The 96-well plates are sealed with adhesive film and incubated for 16 hours at 4° C. The plates are then washed three times with a solution containing 50 mM Tris-HCl pH 7.5, 0.15M NaCl and 0.02% Tween-20 and tapped dry.
Plates are then washed three times with a solution containing 50 mM Tris-HCl pH 7.5, 0.15M NaCl and 0.02% Tween-20 and tapped dry.

[1] = tested on: HeyA8, SKOV3ip1, and HeyA8-MDR models; details: concomitant administration of TAE226 and docetaxel, all three models; cited from earlier work

T1 sequence (Q05397 whole entry): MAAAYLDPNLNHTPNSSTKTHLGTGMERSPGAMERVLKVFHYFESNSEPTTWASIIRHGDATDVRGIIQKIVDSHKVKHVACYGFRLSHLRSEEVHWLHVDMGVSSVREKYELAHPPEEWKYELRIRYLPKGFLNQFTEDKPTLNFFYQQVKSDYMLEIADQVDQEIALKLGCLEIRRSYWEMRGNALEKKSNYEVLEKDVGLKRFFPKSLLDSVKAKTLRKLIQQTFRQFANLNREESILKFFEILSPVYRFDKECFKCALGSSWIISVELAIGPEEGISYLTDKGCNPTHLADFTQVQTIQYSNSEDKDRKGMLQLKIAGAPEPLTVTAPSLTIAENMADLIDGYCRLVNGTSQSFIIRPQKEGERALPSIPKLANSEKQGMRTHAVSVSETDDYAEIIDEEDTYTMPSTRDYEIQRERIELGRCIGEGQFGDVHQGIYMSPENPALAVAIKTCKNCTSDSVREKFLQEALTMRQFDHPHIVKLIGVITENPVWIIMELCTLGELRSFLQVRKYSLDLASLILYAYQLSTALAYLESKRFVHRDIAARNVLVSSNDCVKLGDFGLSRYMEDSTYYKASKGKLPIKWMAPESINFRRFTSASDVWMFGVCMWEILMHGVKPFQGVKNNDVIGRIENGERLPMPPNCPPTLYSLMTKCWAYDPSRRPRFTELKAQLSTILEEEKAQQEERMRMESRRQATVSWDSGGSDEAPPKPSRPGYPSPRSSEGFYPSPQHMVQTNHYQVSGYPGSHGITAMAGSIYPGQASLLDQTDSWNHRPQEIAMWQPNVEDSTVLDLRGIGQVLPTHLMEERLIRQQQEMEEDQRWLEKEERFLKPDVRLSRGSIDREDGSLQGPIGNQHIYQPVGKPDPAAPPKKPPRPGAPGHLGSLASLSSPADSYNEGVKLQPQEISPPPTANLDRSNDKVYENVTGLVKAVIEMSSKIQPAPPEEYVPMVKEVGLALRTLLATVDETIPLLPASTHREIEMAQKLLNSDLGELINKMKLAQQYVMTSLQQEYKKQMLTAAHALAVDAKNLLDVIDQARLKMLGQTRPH

| Structure (SMILES) | % response of control at 2 μM (Y397-FAK phosphorylation) [%] | further results |
| --- | --- | --- |
| COc1cc(N2CCNCC2)ccc1Nc1ncc(C(F)(F)F)c(CCc2ccccc2CC(N)=O)n1 [Compound 1, 2-(2-(2-(2-((2-Methoxy-4-(piperazin-1-yl)phenyl)amino)-5-(trifluoromethyl)pyrimidin-4-yl)ethyl)phenyl)acetamide] |  | % response of control at 2 μM (Y397-FAK phosphorylation; MDA-231-LNA cells, relative to control compound at 2 μM): 122% |
| COc1cc(C2CCNCC2)ccc1Nc1ncc(C(F)(F)F)c(CCc2ccccc2CC(N)=O)n1 [Compound 2, 2-(2-(2-(2-((2-Methoxy-4-(piperidin-4-yl)phenyl)amino)-5-(trifluoromethyl)pyrimidin-4-yl)ethyl)phenyl)acetamide] | 91 |  |
| COc1cc(C2CCN(C)CC2)ccc1Nc1ncc(C(F)(F)F)c(CCc2ccccc2CC(N)=O)n1 [Compound 3, 2-(2-(2-(2-((2-Methoxy-4-(1-methylpiperidin-4-yl)phenyl)amino)-5-(trifluoromethyl)pyrimidin-4-yl)ethyl)phenyl)acetamide] | 102 |  |
| CCN1CCC(c2ccc(Nc3ncc(C(F)(F)F)c(CCc4ccccc4CC(N)=O)n3)c(OC)c2)CC1 [Compound 4, 2-(2-(2-(2-((4-(1-Ethylpiperidin-4-yl)-2-methoxyphenyl)amino)-5-(trifluoromethyl)pyrimidin-4-yl)ethyl)phenyl)acetamide] | 108 |  |
| COc1cc(C2CCN(C)CC2)ccc1Nc1ncc(C(F)(F)F)c(CCc2cccc(C(N)=O)c2)n1 [Compound 6, 3-(2-(2-((2-Methoxy-4-(1-methylpiperidin-4-yl)phenyl)amino)-5-(trifluoromethyl)pyrimidin-4-yl)ethyl)benzamide] | 80 |  |
| NC(=O)Cc1ccccc1CCc1nc(Nc2ccc(C3CCNCC3)cc2OC(F)(F)F)ncc1C(F)(F)F [Compound 10, 2-(2-(2-(2-((4-(Piperidin-4-yl)-2-(trifluoromethoxy)phenyl)amino)-5-(trifluoromethyl)pyrimidin-4yl)ethyl)phenyl)acetamide] | 116 |  |
| CN1CCC(c2ccc(Nc3ncc(C(F)(F)F)c(CCc4ccccc4CC(N)=O)n3)c(OC(F)(F)F)c2)CC1 [Compound 11, 2-(2-(2-(2-((4-(1-Methylpiperidin-4-yl)-2-(trifluoromethoxy)phenyl)amino)-5-(trifluoromethyl)pyrimidin-4-yl)ethyl)phenyl)acetamide] | 117 |  |
| CN1CCC(c2ccc(Nc3ncc(C(F)(F)F)c(CCc4ccccc4CC(N)=O)n3)c(F)c2)CC1 [Compound 13, 2-(2-(2-(2-((2-Fluoro-4-(1-methylpiperidin-4-yl)phenyl)amino)-5-(trifluoromethyl)pyrimidin-4-yl)ethyl)phenyl)acetamide] | 90 |  |
| CNC(=O)c1ccccc1Nc1nc(Nc2ccc(N3CCOCC3)cc2OC)ncc1Cl [TAE226] |  | reduction of tumour burden [1]: 85-97% |
